This is an account of results in patent US20230090691A1, “COMPOSITIONS AND METHODS FOR PROMOTING AND/OR MAINTAINING VAGINOVULVAL AND PERIANAL TISSUE VITALITY AND TISSUE HEALTH” (SPINART, LLC, priority 2021, published 2023).

Where “and” joins values, the source holds several entries; their conditions need not be identical. Equal entries are not always repeated. Entries after “also recorded” stand apart in the source; their conditions may differ.

For experiment [1], the system named is human keratinocytes (HaCaT). As to the kind of experiment: Wound-healing (scratch) assay. It counts as cell-based. Particulars: for wound area Basal (0 h): 20 ng/ml wells, immediately after wounding; for wound area Basal (0 h) / % area wound 24 h / % relative Area to Control 24 h / % wound healing 24 h / wound area 24 h: replicates; for wound healing enhanced, compared to the untreated control / Decreased wound area / % area wound 24 h / % relative Area to Control 24 h / % wound healing 24 h / wound area 24 h: 20 ng/ml; for wound healing enhanced, compared to the untreated control: 24 hours; for Decreased wound area: 24 hr. The source says: An in vitro scratch assay was used to study cell migration in vitro. [Todaro, G J et al. The initiation of cell division in a contact-inhibited mammalian cell line. J. Cell Physiol. (1965) 66: 325-33]. This method is based on the observation that, upon creation of a new artificial gap or “scratch”, on a confluent cell monolayer, the cells on the edge of the newly created gap will move toward the opening to close the “scratch” until new cell-cell contacts are established. One of the major advantages of this simple method is that it mimics to some extent migration of cell in vivo. For example, removal of part of the endothelium in blood vessels will induce migration of endothelial cells (ECs) into the denuded area to close the wound [Haudenschild, C. et al. Endothelial regeneration. II. Restitution of endothelial continuity. Lab. Invest. (1979) 41: 407-18]. Furthermore, the patterns of migration either as a loosely connected population (e.g., fibroblasts) or as sheets of cells (e.g., epithelial and EECs) also mimic the behavior of these cells during migration in vivo. The scratch assay is particularly suitable to study the regulation of cell migration by cell interaction with extracellular matrix (ECM) and cell-cell interactions.
For the wound-healing assay, HaCaT keratinocytes were seeded overnight in DMEM medium supplemented with 10% fetal bovine serum (FBS) at 80% confluence (190,000 cells per well. The next day, a 2 mm wound was made over the confluent monolayer using a 1 ml pipete tip. Test samples were added to the HaCaT cells, supplemented with 0.5% FBS. The untreated control was 0.5% FBS.
Images were taken before and after 24 hours of treatment, and wound area was quantified using ImageJ software. All data were statistically analyzed.
For seeding cells, cell numbers and viability were determined using Trypan-Blue staining; cells were counted in a Bürker chamber under the microscope. Human keratinocytes (HaCaT cells) were seeded overnight in DMEM medium supplemented with 10% fetal bovine serum (FBS).
Parallel lines were drawn at the bottom of the wells (3 mm separated lines outside the plate). These lines were used as boundaries for scratch images, thus providing an accurate analysis in each well. Cells were seeded at 190,000 cells/well to promote the formation of a monolayer and kept at 37 C for 24 h. Then, 2 mm-wide wounds were made in the confluent monolayer. Wells were washed once with PBS and refilled with DMEM+0.5% FBS. Basal images were taken immediately using a microscope. […] In addition, human epidermal growth factor (hEGF) at 20 ng/ml was included as a positive control, and 0.5% FBS as a basal control.
Plates were placed in the 37° C. incubator and incubated for 24 h to allow the scratch to heal. Microscopic images are shown below. One biological replicate was performed and four technical replicates per condition were used.
Data analysis was performed using ImageJ software. Microscopic images are shown in Results. Statistical analysis (ordinary one-way ANOVA test) was performed to determine the significance between tested samples and basal control.
The percentage of wound area in each well at 24 hr was calculated by dividing the wound area at 24 hr and the wound area immediately after making the wound. The mean value for the four replicates in the Basal Control (untreated) group was obtained and used to normalize each measure in all of the samples and conditions. A bar graph was generated to represent the wound area or wound healing in each of the tested conditions.

Experiment [2] concerns urogenital atrophy in breast cancer patients. Particulars: study of 46 patients; compared to saline; cited from earlier work.
Setting [3] is: experiment with RS-0198A and RS-0198B.

For “EGF: human epidermal growth factor, positive control at 20 ng/ml”, in experiment [1], the “wound area Basal (0 h)” value is 1324098 pixels and 1346138 pixels and 1134400 pixels and 1741659 pixels; the “% area wound 24 h” value is 19.877% and 29.524% and 18.706% and 6.405%; the “% relative Area to Control 24 h” value was 42.310% and 62.846% and 39.818% and 13.633%; the “% wound healing 24 h” value is 57.690% and 37.154% and 60.182% and 86.367%. Further, the “wound area 24 h” value in experiment [1] is 263185 pixels and 397433 pixels and 212198 pixels and 111545 pixels. In experiment [1] (listed as C + EGF), the “wound area Basal (0 h)” value was 1188450 pixels and 1278864 pixels and 1237384 pixels and 1227903 pixels; the “% area wound 24 h” value is 27.291% and 2.058% and 0.000% and 5.244%; the “% relative Area to Control 24 h” value is 89.630% and 6.758% and 0.000% and 17.222%; the “% wound healing 24 h” value was 10.370% and 93.242% and 100.000% and 82.778%. Besides, the “wound area 24 h” value in experiment [1] (listed as C + EGF) was 24456 pixels and 0 pixels (2×) and 64389 pixels. In experiment [1] (experiment with RS012221), the “wound healing enhanced, compared to the untreated control” value was determined as 94.0±8.6% and the Decreased wound area was found to be 94.0±8.6%. In experiment [1] (setting [3]), the “wound healing enhanced, compared to the untreated control” value came out at 60.4±15.7% and the Decreased wound area stood at 60.4 ± 15.7%. Moreover, the “wound area (result in words)” value in experiment [1] (24 hr treatment of HaCaT, compared to the untreated control) is “significantly decreased wound area”. Moreover, in experiment [1] (24 h treatment of HaCaT, compared to untreated control, concentrations as in the sentence, listed as hEGF), the “wound healing (result in words)” value is given as “enhanced wound healing; also recorded: boosted wound healing”.

As to `CCN(CC)CC(=O)Nc1c(C)cccc1C` [lidocaine], the “patients with reduced dyspareunia” value in experiment [2] was 90%.
